Calls of active or inactive are those of the source. No cut-off for these calls is given here.
Assays:
[1] = Inhibition of nonspecific gene transcription in human PC3 cells transfected with Galpha12QL activator at 100 uM incubated for 19 hrs by PRL-TK luciferase based dual luciferase reporter gene assay; type: cell-based, PC-3
[2] = Inhibition of rho-mediated gene transcription in human PC3 cells transfected with Galpha12QL activator incubated for 19 hrs by SRE.L-firefly luciferase based dual luciferase reporter gene assay; type: cell-based; conditions: PC-3, 19 h
[3] = organism: Homo sapiens; assay: Inhibition of rho-mediated gene transcription in human PC3 cells transfected with Galpha12QL activator at 100 uM incubated for 19 hrs by SRE.L-firefly luciferase based dual luciferase reporter gene assay relative to control; type: cell-based
[4] = Inhibition of nonspecific gene transcription in human PC3 cells transfected with Galpha12QL activator at 10 uM incubated for 19 hrs by PRL-TK luciferase based dual luciferase reporter gene assay; type: cell-based, PC-3
[5] = organism: Homo sapiens; assay: Inhibition of rho-mediated gene transcription in human PC3 cells transfected with Galpha12QL activator at 10 uM incubated for 19 hrs by SRE.L-firefly luciferase based dual luciferase reporter gene assay relative to control; type: cell-based
[6] = system: SK-OV-3; assay: Antiinvasive activity against human SKOV3 cells assessed as inhibition of LPA-stimulated cell invasion at 100 ng/ml by matrigel based assay; type: functional
[7] = system: PC-3; assay: Cytotoxicity against human PC3 cells assessed as inhibition of cell cell viability at 10 uM incubated for 19 hrs by WST1 based assay relative to control; type: functional; conditions: for inhibition at 10 µM: PC-3, 19 h
[8] = system: PC-3; assay: Cytotoxicity against human PC3 cells assessed as inhibition of cell cell viability at 100 uM incubated for 19 hrs by WST1 based assay relative to control; type: functional; conditions: for inhibition at 100 µM: PC-3, 19 h
[9] = system: PC-3; assay: Antiproliferative activity against human PC3 cells assessed as inhibition of LPA-stimulated cell proliferation incubated for 27 hrs by BrdUrd incorporation assay; type: functional, cell-based
[10] = system: A-375; assay: Antiproliferative activity against human A375 cells assessed as inhibition of LPA-stimulated cell proliferation at 0.3 mmol/L and measured on day 8 by WST1 based assay; type: functional
[11] = system: SK-MEL-28; assay: Antiproliferative activity against human SK-MEL-28 cells assessed as inhibition of LPA-stimulated cell proliferation at 0.3 mmol/L and measured on day 8 by WST1 based assay; type: functional
[12] = system: PC-3; assay: Antiinvasive activity against human PC3 cells assessed as inhibition of LPA-stimulated cell invasion at 3 umol/L by matrigel based assay; type: functional
[13] = system: WI-38; assay: Antiproliferative activity against human WI38 cells assessed as inhibition of LPA-stimulated cell proliferation at 0.3 mmol/L and measured on day 8 by WST1 based assay; conditions: wi-38, 300 µM
[14] = organism: Homo sapiens; assay: Antiproliferative activity against human A375M2 cells assessed as inhibition of LPA-stimulated cell proliferation at 0.3 mmol/L and measured on day 8 by WST1 based assay; type: functional
[15] = system: SK-MEL-147; assay: Antiproliferative activity against human SK-MEL-147 cells assessed as inhibition of LPA-stimulated cell proliferation at 0.3 mmol/L and measured on day 8 by WST1 based assay; type: functional

SMILES | inhibition at 19 h, 100 µM [1] [%] | IC50 [2] [µM] | inhibition at 19 h, 10 µM [4] [%] | inhibition [3] | inhibition [5] | other results
O=C(CONC(=O)c1ccc(C(F)(F)F)cc1)Nc1ccc(Cl)cc1 | 0 | 29 | 6 | 91% | 26% | 
O=C(CONC(=O)c1cccc(C(F)(F)F)c1)Nc1ccc(Cl)cc1 | 19 | 27 | 5 | 86% | 25% | 
O=C(CC1CCCCN1C(=O)c1cc(C(F)(F)F)cc(C(F)(F)F)c1)Nc1ccc(Cl)cc1 (configuration not stated) |  |  | 0 |  |  | 
CC(=O)O[C@H]1C(=O)[C@@]2(C)[C@H]([C@H](OC(=O)c3ccccc3)[C@]3(O)C[C@H](OC(=O)[C@H](O)[C@@H](NC(=O)c4ccccc4)c4ccccc4)C(C)=C1C3(C)C)[C@]1(OC(C)=O)CO[C@@H]1C[C@@H]2O |  |  |  |  |  | inhibition [6]: Active
O=C(CONC(=O)c1ccccc1)Nc1ccc(Cl)cc1 |  | > 100 |  | inactive | inactive | inhibition [7]: inactive; inhibition [8]: inactive
O=C(Nc1ccccc1C(=O)Nc1ccc(Cl)cc1)c1cc(C(F)(F)F)cc(C(F)(F)F)c1 |  |  | 0 |  |  | 
CN(CCNC(=O)c1cc(C(F)(F)F)cc(C(F)(F)F)c1)C(=O)c1ccc(Cl)cc1 | 10 | > 1000 | 0 | 25% | 20% | inhibition at 10 µM [7]: 0%; inhibition at 100 µM [8]: 0%

The next lines start with results.

inhibition at 19 h, 100 µM [1] [%] | IC50 [2] [µM] | inhibition at 19 h, 10 µM [4] [%] | SMILES | inhibition [3] | inhibition [5] | other results
59 | 36 | 33 | O=C(CONC(=O)c1cc(C(F)(F)F)cc(C(F)(F)F)c1)Nc1ccccc1 | 65% | 13% | 
10 | > 100 | 0 | O=C(CCCCNC(=O)c1cc(C(F)(F)F)cc(C(F)(F)F)c1)Nc1ccc(Cl)cc1 | 12% | 0% | inhibition at 10 µM [7]: 0%; inhibition at 100 µM [8]: 0%
15 to 22 | 25 to 38 |  | O=C(CCNC(=O)c1cc(C(F)(F)F)cc(C(F)(F)F)c1)Nc1ccc(Cl)cc1 | 64 to 66% | 38 to 44% | inhibition at 100 µM [8]: 6 to 10%
 |  | 48 | CC(ONC(=O)c1cc(C(F)(F)F)cc(C(F)(F)F)c1)C(=O)Nc1ccc(Cl)cc1 (configuration not stated) |  | 74% | inhibition at 10 µM [7]: 44%; inhibition [9]: Active; inhibition [10]: Active; inhibition [11]: Active; inhibition [12]: Active; Activity [13]: Non-Toxic; inhibition [14]: Active; inhibition [15]: Active
